pEC50, pIC50, pKi: −log10 of the molar value.
Legend:
human 5-HT2A receptor [1] = biological target: T1, human 5-HT2A receptor (Homo sapiens (Human), UniProt P28223); assay: Test 1: binding activity for human 5-HT2A receptor ([3H]Ketanserin, CHO cell membrane fraction)
Protocol: Test 1: Evaluation of Binding Activity for Human 5-HT1A Receptor, Human 5-HT2A Receptor, and Human D2 Receptor
Binding affinity of the present compound for human 5-HT1A receptor, human 5-HT2A receptor, and human D2 receptor was measured by the following procedures.
Each mixture was incubated at room temperature for 60 minutes. Then, the mixture was added quickly on a glassfiber filter plate (Multiscreen FB, Millipore, Inc.) coated with 0.3% aqueous polyethylenimine, and vacuum-filtered. Radioactivity remaining on the filter was measured with a liquid scintillation counter (PerkinElmer, Inc.). Binding inhibition rate was calculated from the following formula.
Ki of each compound was calculated from the following formula. Binding inhibition constant (Ki)=IC50/(1+S/Kd) wherein S is concentration of ligand; Kd is a binding dissociation constant of ligand to membrane, which is calculated from a saturated binding experiment conducted with the same cell membrane. A small Ki value means strong binding ability to a receptor.

human 5-HT1A receptor [2] = biological target: T2, human 5-HT1A receptor (Homo sapiens (Human), UniProt P08908); assay: Test 2: agonist activity for human 5-HT1A receptor ([35S]GTPγS binding); assay type: biochemical; details: for Emax at 10 µM: agonist activity in the presence of 10 μM of compound, relative to 100 μmol/L 5-HT; for pEC50: [35S]GTPγS binding, concentration at which half the activity of Emax was obtained
T2 sequence (P08908 whole entry): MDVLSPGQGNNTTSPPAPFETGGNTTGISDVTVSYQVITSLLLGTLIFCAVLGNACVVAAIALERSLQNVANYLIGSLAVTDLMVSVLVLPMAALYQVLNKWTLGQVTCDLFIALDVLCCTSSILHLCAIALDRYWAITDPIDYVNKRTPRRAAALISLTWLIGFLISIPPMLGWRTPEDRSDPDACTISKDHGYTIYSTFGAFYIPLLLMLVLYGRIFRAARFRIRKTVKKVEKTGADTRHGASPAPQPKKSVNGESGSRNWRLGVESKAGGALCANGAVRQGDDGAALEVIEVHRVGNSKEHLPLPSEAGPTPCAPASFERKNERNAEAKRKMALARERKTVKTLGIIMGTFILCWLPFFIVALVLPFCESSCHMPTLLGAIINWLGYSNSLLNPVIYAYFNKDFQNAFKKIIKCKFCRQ
Method in brief: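 Membranes from CHO cells expressing human 5-HT1A incubated with compound, GDP-containing buffer and [35S]GTPγS for 60 min at room temperature. Bound radioactivity collected by glass-fibre filtration and counted by liquid scintillation; agonist activity derived from a formula.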

human 5-HT2A receptor [3] = biological target: T1, human 5-HT2A receptor; assay: Test 3: antagonist activity for human 5-HT2A receptor (aequorin luminescence, CHO-K1 cells); assay type: cell-based; details: CHO-K1 cells, 1 nmol/L 5-HT
Protocol: Test 3: Evaluation of Antagonist Activity for Human 5-HT2A Receptor
Aequorin, Gα16 protein, and each receptor were transiently expressed in CHO-K1 cells (Chinese hamster ovary). […] Each compound dissolved in DMSO was added thereto, and changes in luminescence were measured by FDSS/μCELL functional drug screening system (Hamamatsu Photonics K.K.). Antagonist activity was calculated from the following formula. Antagonist activity (%)=100×{(Luminescence of well in the presence of 1 nmol/L 5-HT−Luminescence of well containing solvent)−(Luminescence of well in the presence of test compound and 1 nmol/L 5-HT−Luminescence of well containing solvent)}/(Luminescence of well in the presence of 1 nmol/L 5-HT−Luminescence of well containing solvent)

[4] = Test 4: metabolic stability test in human hepatic microsome; assay type: in vitro ADME; details: 0.1 mg/mL microsome, 0.1 μmol/L compound, 37° C., 30 minutes
Method in brief: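 Compound at 0.1 μmol/L incubated 30 min at 37° C with human liver microsomes (0.1 mg/mL) and NADPH (3.2 mmol/L) in 25 mmol/L phosphate buffer, pH 7.4. Residual compound measured by LC-MS; stability (mL/min/mg protein) = −LN(residual ratio)/30/0.1.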

hERG channel = hERG channel (Homo sapiens (Human), UniProt Q12809); assay: Test 6-1: inhibitory activity for hERG channel (auto patch clamp, Qpatch); assay type: cell-based; details: whole cell auto patch clamp, hERG-CHO cells; read-out: hERG inhibition IC50
Chain of hERG channel (Q12809 whole entry): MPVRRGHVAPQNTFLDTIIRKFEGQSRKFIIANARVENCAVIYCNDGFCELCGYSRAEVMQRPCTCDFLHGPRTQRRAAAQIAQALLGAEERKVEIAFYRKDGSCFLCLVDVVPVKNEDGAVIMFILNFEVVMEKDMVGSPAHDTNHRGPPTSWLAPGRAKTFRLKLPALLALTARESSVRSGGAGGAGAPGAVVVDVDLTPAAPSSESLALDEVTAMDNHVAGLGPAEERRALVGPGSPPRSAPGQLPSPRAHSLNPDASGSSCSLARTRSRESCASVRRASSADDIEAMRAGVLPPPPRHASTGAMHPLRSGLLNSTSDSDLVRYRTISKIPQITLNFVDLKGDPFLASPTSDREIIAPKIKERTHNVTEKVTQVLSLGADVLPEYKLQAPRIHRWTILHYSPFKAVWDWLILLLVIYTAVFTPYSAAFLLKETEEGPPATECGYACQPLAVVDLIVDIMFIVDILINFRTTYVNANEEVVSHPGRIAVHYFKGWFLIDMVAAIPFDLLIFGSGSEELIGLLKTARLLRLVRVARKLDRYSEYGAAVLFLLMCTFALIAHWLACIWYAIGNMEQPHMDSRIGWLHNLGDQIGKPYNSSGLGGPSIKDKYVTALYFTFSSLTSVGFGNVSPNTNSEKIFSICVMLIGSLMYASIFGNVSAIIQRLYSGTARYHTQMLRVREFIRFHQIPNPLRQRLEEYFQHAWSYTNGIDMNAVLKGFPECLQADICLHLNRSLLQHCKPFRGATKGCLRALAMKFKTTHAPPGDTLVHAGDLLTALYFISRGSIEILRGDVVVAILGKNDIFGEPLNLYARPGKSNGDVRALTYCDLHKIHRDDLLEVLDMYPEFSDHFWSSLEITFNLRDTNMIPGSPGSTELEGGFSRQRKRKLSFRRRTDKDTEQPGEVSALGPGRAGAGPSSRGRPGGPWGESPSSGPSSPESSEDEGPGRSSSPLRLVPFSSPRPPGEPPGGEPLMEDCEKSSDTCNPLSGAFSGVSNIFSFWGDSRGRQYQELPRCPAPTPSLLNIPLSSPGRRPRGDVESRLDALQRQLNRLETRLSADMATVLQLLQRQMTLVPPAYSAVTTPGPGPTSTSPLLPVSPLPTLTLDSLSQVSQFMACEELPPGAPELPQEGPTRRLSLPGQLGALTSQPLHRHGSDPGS
Method in brief: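 Whole-cell patch clamp on an automated system using CHO cells stably expressing human hERG (IKr); 15 s pulse interval. Four increasing compound concentrations applied cumulatively; mean peak tail current from last 3 stimulations per concentration used. IC50 from inhibition versus pre-compound current, fitted by Hill equation.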

human 5-HT1A receptor [5] = biological target: T2, human 5-HT1A receptor; assay: Test 1: binding activity for human 5-HT1A receptor ([3H]8-OH-DPAT, CHO cell membrane fraction)
Method in brief: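 Membranes incubated with [3H]8-OH-DPAT and compound for 60 min at room temperature, then filtered on polyethylenimine-coated glass-fibre plates and counted by liquid scintillation. IC50 from Hill analysis; Ki = IC50/(1+S/Kd), Kd from saturation binding on the same membranes.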

human D2 receptor = human D2 receptor (Homo sapiens (Human), UniProt P14416); assay: Test 1: binding activity for human D2 receptor ([3H]Spiperone, CHO cell membrane fraction); details: human D2 receptor, [3H]Spiperone
Chain of human D2 receptor (P14416 whole entry): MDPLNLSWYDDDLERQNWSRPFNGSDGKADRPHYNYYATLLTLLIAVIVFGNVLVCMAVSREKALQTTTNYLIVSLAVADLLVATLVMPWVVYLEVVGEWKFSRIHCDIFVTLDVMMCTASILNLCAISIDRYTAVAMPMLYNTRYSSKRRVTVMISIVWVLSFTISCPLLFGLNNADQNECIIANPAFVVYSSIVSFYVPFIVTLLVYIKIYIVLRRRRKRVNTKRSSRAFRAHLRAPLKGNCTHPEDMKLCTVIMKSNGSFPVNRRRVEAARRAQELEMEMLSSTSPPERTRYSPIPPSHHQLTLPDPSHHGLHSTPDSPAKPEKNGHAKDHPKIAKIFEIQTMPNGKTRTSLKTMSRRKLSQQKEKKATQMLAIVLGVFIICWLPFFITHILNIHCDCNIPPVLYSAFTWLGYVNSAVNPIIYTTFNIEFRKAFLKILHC
Method in brief: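 CHO-cell membranes with [3H]ketanserin (5-HT2A) or [3H]spiperone (D2) were incubated with compound for 60 min at room temperature, then filtered, and bound radioactivity was counted by scintillation. Ki = IC50/(1+S/Kd), with ligand Kd from saturation binding on the same membranes.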

T1 sequence (P28223 whole entry): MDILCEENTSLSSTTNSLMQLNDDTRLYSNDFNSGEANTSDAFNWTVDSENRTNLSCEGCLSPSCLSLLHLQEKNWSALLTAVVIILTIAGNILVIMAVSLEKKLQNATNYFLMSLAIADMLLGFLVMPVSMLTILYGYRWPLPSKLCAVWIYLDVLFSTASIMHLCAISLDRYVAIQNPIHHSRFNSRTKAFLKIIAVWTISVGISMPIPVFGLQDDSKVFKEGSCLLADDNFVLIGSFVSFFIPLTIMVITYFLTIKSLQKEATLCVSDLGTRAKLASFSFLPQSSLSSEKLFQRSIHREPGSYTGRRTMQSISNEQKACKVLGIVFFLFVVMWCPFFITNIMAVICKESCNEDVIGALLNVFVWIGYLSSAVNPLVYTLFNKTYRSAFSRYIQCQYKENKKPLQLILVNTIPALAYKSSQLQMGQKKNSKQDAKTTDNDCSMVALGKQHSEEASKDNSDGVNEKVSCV

| SMILES | pKi (human 5-HT2A receptor [1]) | Emax at 10 µM (human 5-HT1A receptor [2]) | pIC50 (human 5-HT2A receptor [3]) | Metabolic stability in human hepatic microsome [4] | pIC50 (hERG channel) | pIC50 (human 5-HT2A receptor [3]; aequorin luminescence) | pKi (human 5-HT1A receptor [5]) | pEC50 (human 5-HT1A receptor [2]) | pKi (human D2 receptor) |
| --- | --- | --- | --- | --- | --- | --- | --- | --- | --- |
| Cc1nc2c(o1)C(=O)N(CCN1CCN(c3nsc4ccccc34)CC1)CC2 [Example 45] | 8.51 | 65% | 7.57 | 0.032 mL/min/mg protein | 5.15 | – | – | – | – |
| Cc1ccc2c(n1)C(=O)N(CCN1CCC(c3noc4ccccc34)CC1)CC2 [Example 184] | 7.57 | 59% | – | <0.05 mL/min/mg protein | 6.10 | 7.02 | – | – | – |
| O=C1c2cncnc2CCN1CCN1CCC(c2noc3ccccc23)CC1 [Example 57] | 8.12 | 61% | 7.11 | 0.013 mL/min/mg protein | 5.66 | – | – | – | – |
| Cn1ccc2c1CCCN(CCN1CCN(c3nsc4ccccc34)CC1)C2=O [Example 165] | 8.92 | 44% | – | 0.265 mL/min/mg protein | 5.10 | 7.81 | – | – | – |
| Cc1noc2c1C(=O)N(CCN1CCN(c3nsc4ccccc34)CC1)CCC2 [Example 40] | 8.31 | 60% | 8.06 | 0.278 mL/min/mg protein | 5.74 | – | – | – | – |
| O=C1c2ncccc2CCN1CCN1CCN(c2noc3cc(F)ccc23)CC1 [Example 123] | – | 71% | – | <0.05 mL/min/mg protein | 5.41 | 7.64 | 6.79 | 6.73 | – |
| Cc1nc2c(o1)CCCN(CCN1CCN(c3nsc4ccccc34)CC1)C2=O [Example 52] | 8.33 | 77% | 7.92 | 0.043 mL/min/mg protein | 5.31 | – | – | – | – |
| O=C1c2ncccc2CCN1CCN1CCC(c2nsc3ccccc23)CC1 [Example 26] | 8.72 | 50% | 8.35 | <0.01 mL/min/mg protein | 6.10 | – | – | – | – |
| Cc1c2c(nn1C)CCN(CCN1CCN(c3noc4ccccc34)CC1)C2=O [Example 171] | 8.59 | 56% | – | <0.05 mL/min/mg protein | 5.18 | 7.34 | – | – | – |
| O=C1c2ncccc2CCN1CCN1CCN(c2noc3cc(Cl)ccc23)CC1 [Example 124] | 7.11 | – | – | – | – | 6.92 | – | – | – |
| Cn1ncc2c1CCCC(CCN1CCC(c3noc4ccccc34)CC1)C2=O (stereo not shown) [Example 30] | 9.12 | 42% | 7.37 | 0.065 mL/min/mg protein | 6.05 | – | – | – | – |
| O=C1c2c(Br)nn(Br)c2CCN1CCN1CCN(c2nsc3ccccc23)CC1 [Example 69] | 9.00 | 45% | – | – | – | – | 7.98 | 7.47 | 6.44 |
| CCc1nc2c(o1)C(=O)N(CCN1CCC(c3noc4ccccc34)CC1)CC2 [Example 72] | 8.11 | – | 7.14 | – | – | – | – | – | – |
| O=C1c2cccnc2CCN1CCN1CCN(c2nsc3ccccc23)CC1 [Example 9] | 8.65 | 43% | – | 0.100 mL/min/mg protein | 5.64 | – | – | – | – |
| Cc1nc2c(o1)C(=O)N(CCN1CCN(c3noc4ccccc34)CC1)CC2 [Example 178] | 6.75 | – | – | – | – | 5.69 | – | – | < 5.00 |
| O=C1c2ncccc2CCN1CCN1CCC(c2noc3cc(F)ccc23)CC1 [Example 125] | 9.57 | – | – | <0.05 mL/min/mg protein | > 6.52 | 8.15 | – | – | – |
| Cc1cc2c(cn1)C(=O)N(CCN1CC=C(c3noc4ccccc34)CC1)CC2 [Example 152] | 7.94 | – | – | – | – | 7.08 | – | – | – |
| Cc1cc2c(cn1)C(=O)N(CCN1CCN(c3nsc4ccccc34)CC1)CC2 [Example 108, 2-{2-[4-(1,2-Benzoisothiazol-3-yl)piperazin-1-yl]ethyl}-6-methyl-3,4-dihydro-2,7-naphthyridin-1(2H)-one] | – | 71% | 8.12 | 0.119 mL/min/mg protein | 5.55 | – | – | – | – |
| O=C1c2ncccc2CCN1CCN1CCC(c2noc3cc(F)ccc23)CC1 [Example 4] | 8.62 | – | 8.00 | 0.011 mL/min/mg protein | 6.40 | – | – | – | – |
| O=c1c2cnccc2ccn1CCN1CCC(c2noc3ccccc23)CC1 [Example 13] | 8.08 | – | 7.15 | <0.01 mL/min/mg protein | – | – | – | – | – |
| Cc1noc2ccn(CCN3CCN(c4nsc5ccccc45)CC3)c(=O)c12 [Example 53] | – | 72% | 8.10 | 0.436 mL/min/mg protein | 5.24 | – | – | – | – |
| Cn1ccc2c1CCN(CCN1CCN(c3noc4ccccc34)CC1)C2=O [Example 170] | – | 42% | – | <0.05 mL/min/mg protein | 5.13 | – | 7.45 | 6.08 | 5.77 |
| Cc1cc2c(n1C)CCCN(CCN1CCC(c3noc4ccccc34)CC1)C2=O [Example 166] | – | 57% | – | <0.05 mL/min/mg protein | 6.00 | – | 9.77 | 8.21 | 6.86 |
| O=C1c2sccc2CCN1CCN1CCC(c2noc3ccccc23)CC1 [Example 126] | – | 60% | – | 0.135 mL/min/mg protein | > 6.52 | – | 7.80 | 7.17 | 7.03 |
| Cc1noc2c1C(=O)N(CCN1CCC(c3noc4ccccc34)CC1)CC2 [Example 33] | – | 49% | – | 0.074 mL/min/mg protein | 6.22 | – | 8.03 | 6.33 | 6.00 |

— patent US10745401B2, “Condensed lactam derivative” (Sumitomo Dainippon Pharma Co., Ltd., priority 2018, dated 2020)
